Patent publication US20230389548A1, “MIXTURES OF PYRIMIDINES AS HERBICIDAL COMPOSITIONS” (SYNGENTA CROP PROTECTION AG, priority 2020, published 2023)

What was measured:
Assay in all cases: Post-emergence glasshouse spray test, visual percentage phytotoxicity after 13 days
Format in all cases: in vivo
[1] = test system: Digitaria sanguinalis (DIGSA); conditions: for DIGSA percentage phytotoxicity: B1
Experimental: (§1) Seeds of Setaria faberi (SETFA), Echinochloa crus-galli (ECHCG), Digitaria sanguinalis (DIGSA), Lolium perenne (LOLPE), Alopecurus myosuroides (ALOMY), Chenopodium album (CHEAL), Ipomoea hederacea (IPOHE), Stellaria media (STEME), Abutilon threophrasti (ABUTH), Amaranthus retroflexus (AMARE) were sown in standard sterilised soil in pots. After cultivation for 8 days under controlled conditions in a glasshouse (at 24/19° C., day/night; 16 hours light; no humidity control), the plants were sprayed at 500 l/Ha with an aqueous spray solution derived from the formulation of the technical active ingredients in a small amount of acetone and a solvent and emulsifier mixture referred to as IF50 (11.12% Emulsogen EL360™+44.44% N-methylpyrrolidone+44.44% Dowanol DPM glycol ether), to create a 50 g/l solution which was then diluted using 0.2% Genapol XO80 (CAS Number: 9043-30-5) as diluent to give the desired final dose of test compound.
(§2) Where active ingredients were applied as mixtures, aqueous spray solutions were prepared as above, containing both active ingredients.
(§3) The test plants were then grown under controlled conditions in a glasshouse (at 24/18° C., day/night; 15 hours light; 50% humidity) and watered twice daily. After 13 days, the test was evaluated visually for percentage phytotoxicity to the plants (where 100=total damage to plant; 0=no damage to plant; and NC=not captured) when compared to control untreated plants. Two to four replicates were applied for each treatment in a randomised block test design.
(§4) 22., E=X+Y−(X*Y/100), where
(§5) X=average percent phytotoxicity of herbicide A when applied at a certain rate Y=average percent phytotoxicity using herbicide B when applied at a certain rate E=the expected effect of the mixture of herbicides A and B as calculated from the Colby formula.

[2] = test system: Alopecurus myosuroides (ALOMY); conditions: for ALOMY percentage phytotoxicity: B1
Experimental: as §1, §2, §3, §4, §5

[3] = test system: Setaria faberi (SETFA); conditions: for SETFA percentage phytotoxicity: B1; for Observed phytotoxicity SETFA: B2.3.1
Experimental: as §1, §2, §3, §4, §5

[4] = test system: Ipomoea hederacea (IPOHE); conditions: for IPOHE percentage phytotoxicity: B1
Experimental: as §1, §2, §3, §4, §5

[5] = test system: Amaranthus retroflexus (AMARE); conditions: B1
Experimental: as §1, §2, §3, §4, §5

[6] = test system: Echinochloa crus-galli (ECHCG); conditions: for ECHCG percentage phytotoxicity: B1; for Observed phytotoxicity ECHCG: B2.3.2
Experimental: as §1, §2, §3, §4, §5

[7] = test system: Chenopodium album (CHEAL); conditions: B1
Experimental: as §1, §2, §3, §4, §5

[8] = test system: Stellaria media (STEME); conditions: for STEME percentage phytotoxicity: B1
Experimental: as §1, §2, §3, §4, §5

[9] = test system: Abutilon threophrasti (ABUTH); conditions: B1
Experimental: as §1, §2, §3, §4, §5

[10] = test system: Lolium perenne (LOLPE); conditions: for LOLPE percentage phytotoxicity: B1; for Observed phytotoxicity LOLPE: B2.3.4
Experimental: as §1, §2, §3, §4, §5

CCOC(=O)COc1ncccc1Oc1cc(-n2c(=O)cc(C(F)(F)F)n(C)c2=O)c(F)cc1Cl [B-V]
DIGSA percentage phytotoxicity ([1]; 0.31 g/ha post-emergence): 13% | DIGSA percentage phytotoxicity ([1]; 0.625 g/ha post-emergence): 43% | DIGSA percentage phytotoxicity ([1]; 1.25 g/ha post-emergence): 88% | DIGSA percentage phytotoxicity ([1]; 2.5 g/ha post-emergence): 99% | DIGSA percentage phytotoxicity ([1]; 5 g/ha post-emergence): 100% | Observed phytotoxicity DIGSA ([1]; B2.3.3, 0.625 g/ha post-emergence): 43% | ALOMY percentage phytotoxicity ([2]; 0.31 g/ha post-emergence): 2% | ALOMY percentage phytotoxicity ([2]; 0.625 g/ha post-emergence): 2% | ALOMY percentage phytotoxicity ([2]; 1.25 g/ha post-emergence): 10% | ALOMY percentage phytotoxicity ([2]; 2.5 g/ha post-emergence): 20% | ALOMY percentage phytotoxicity ([2]; 5 g/ha post-emergence): 28% | Observed phytotoxicity ALOMY ([2]; B2.3.5, 1.25 g/ha post-emergence): 10% | SETFA percentage phytotoxicity ([3]; 0.31 g/ha post-emergence): 30% | SETFA percentage phytotoxicity ([3]; 0.625 g/ha post-emergence): 38% | SETFA percentage phytotoxicity ([3]; 1.25 g/ha post-emergence): 85% | SETFA percentage phytotoxicity ([3]; 2.5 g/ha post-emergence): 99% | SETFA percentage phytotoxicity ([3]; 5 g/ha post-emergence): 100% | Observed phytotoxicity SETFA ([3]; 0.625 g/ha post-emergence): 38% | Observed phytotoxicity SETFA ([3]; 1.25 g/ha post-emergence): 85% | IPOHE percentage phytotoxicity ([4]; 0.31 g/ha post-emergence): 58% | IPOHE percentage phytotoxicity ([4]; 0.625 g/ha post-emergence): 70% | IPOHE percentage phytotoxicity ([4]; 1.25 g/ha post-emergence): 100% | IPOHE percentage phytotoxicity ([4]; 2.5 g/ha post-emergence): 100% | IPOHE percentage phytotoxicity ([4]; 5 g/ha post-emergence): 100% | Observed phytotoxicity IPOHE ([4]; B2.3.6, 0.3125 g/ha post-emergence): 58% | AMARE percentage phytotoxicity ([5]; 0.31 g/ha post-emergence): 98% | AMARE percentage phytotoxicity ([5]; 0.625 g/ha post-emergence): 98% | AMARE percentage phytotoxicity ([5]; 1.25 g/ha post-emergence): 100% | AMARE percentage phytotoxicity ([5]; 2.5 g/ha post-emergence): 100% | AMARE percentage phytotoxicity ([5]; 5 g/ha post-emergence): 100% | ECHCG percentage phytotoxicity ([6]; 0.31 g/ha post-emergence): 5% | ECHCG percentage phytotoxicity ([6]; 0.625 g/ha post-emergence): 3% | ECHCG percentage phytotoxicity ([6]; 1.25 g/ha post-emergence): 9% | ECHCG percentage phytotoxicity ([6]; 2.5 g/ha post-emergence): 23% | ECHCG percentage phytotoxicity ([6]; 5 g/ha post-emergence): 65% | Observed phytotoxicity ECHCG ([6]; 0.625 g/ha post-emergence): 3% | Observed phytotoxicity ECHCG ([6]; 1.25 g/ha post-emergence): 9% | Observed phytotoxicity ECHCG ([6]; 2.5 g/ha post-emergence): 23% | CHEAL percentage phytotoxicity ([7]; 0.31 g/ha post-emergence): 85% | CHEAL percentage phytotoxicity ([7]; 0.625 g/ha post-emergence): 96% | CHEAL percentage phytotoxicity ([7]; 1.25 g/ha post-emergence): 93% | CHEAL percentage phytotoxicity ([7]; 2.5 g/ha post-emergence): 100% | CHEAL percentage phytotoxicity ([7]; 5 g/ha post-emergence): 100% | STEME percentage phytotoxicity ([8]; 0.31 g/ha post-emergence): 25% | STEME percentage phytotoxicity ([8]; 0.625 g/ha post-emergence): 83% | STEME percentage phytotoxicity ([8]; 1.25 g/ha post-emergence): 83% | STEME percentage phytotoxicity ([8]; 2.5 g/ha post-emergence): 100% | STEME percentage phytotoxicity ([8]; 5 g/ha post-emergence): 100% | Observed phytotoxicity STEME ([8]; B2.3.7, 0.3125 g/ha post-emergence): 25% | ABUTH percentage phytotoxicity ([9]; 0.31 g/ha post-emergence): 97% | ABUTH percentage phytotoxicity ([9]; 0.625 g/ha post-emergence): 98% | ABUTH percentage phytotoxicity ([9]; 1.25 g/ha post-emergence): 100% | ABUTH percentage phytotoxicity ([9]; 2.5 g/ha post-emergence): 100% | ABUTH percentage phytotoxicity ([9]; 5 g/ha post-emergence): 100% | LOLPE percentage phytotoxicity ([10]; 0.31 g/ha post-emergence): 2% | LOLPE percentage phytotoxicity ([10]; 0.625 g/ha post-emergence): 0% | LOLPE percentage phytotoxicity ([10]; 1.25 g/ha post-emergence): 8% | LOLPE percentage phytotoxicity ([10]; 2.5 g/ha post-emergence): 15% | LOLPE percentage phytotoxicity ([10]; 5 g/ha post-emergence): 25% | Observed phytotoxicity LOLPE ([10]; 1.25 g/ha post-emergence): 8% | Observed phytotoxicity LOLPE ([10]; 2.5 g/ha post-emergence): 15%
